Measured values: article PMC6332076, “Plasma Pharmacokinetics of Polyphenols in a Traditional Japanese Medicine, Jumihaidokuto, Which Suppresses Propionibacterium acnes-Induced Dermatitis in Rats” (Molecules, 2015)
Where two headings read alike, the source gives them in different places.

How the values were obtained:
[1] = Antioxidant assay, hydrogen peroxide-dependent oxidation (OxiSelect In vitro ROS/RNS Assay, DCFH-DiOxyQ); format: biochemical; settings: for activity against ROS (in words): hydrogen peroxide-dependent oxidation; for Antioxidant activity, IC50, Hydrogen Peroxide: tested at 0.1-30 μmol/L, N = 3, n.d. = not detectable at the maximal concentration (30 μmol/L); for anti-ROS activity of glucuronide compared with its aglycone: serially-diluted concentrations
Procedure: Figure 4 Concentration dependency of flavonoid glucuronides and comparison with aglycones. Glucuronides and aglycones of flavonoid were assayed at serially-diluted concentrations to assess on hydrogen peroxide-dependent oxidation. Test samples were incubated with hydrogen peroxide for 5 min, followed by mixing with a probe of oxidant activity. After 15 min incubation, the hydrogen peroxide-dependent fluorescent intensity was measured. Data are shown as mean ± S.E. of triplicates. To assess ROS, OxiSelect In vitro ROS/RNS Assay kits ([…], Minneapolis, MN, USA) were used according to manufacturer’s instructions. Briefly, a test sample was incubated with 2.5 μmol/L of hydrogen peroxide for 5 min, and dichlorodihydrofluorescin DiOxyQ (DCFH-DiOxyQ) was added as a probe of oxidant activity. After 15 min incubation, the hydrogen peroxide-dependent fluorescent intensity was measured using a fluorescent plate reader (Infinite M200; Tecan, Wako Pure Chemical Industries). Percentage of inhibition of ROS was calculated using the following equation: [1 − (sample RFU^a − base RFU^b)/(control RFU^c − base RFU^b)] × 100 (1) where RFU is a relative fluorescent unit of reaction solution, a is RFU of DCFH-DiOxyQ with hydrogen peroxide and sample, b is RFU of DCFH-DiOxyQ alone, and c is RFU of DCFH-DiOxyQ with hydrogen peroxide.

[2] = Antioxidant assay, nitric oxide generated from NOR3 (Griess reagent); format: biochemical; settings: for activity against nitric oxide (in words): nitric oxide reaction
Procedure: To quantify nitric oxide, a test sample was incubated at 37 °C for 150 min in PBS supplemented with 30 μmol/L of (±)-(E)-4-ethyl-2-[(E)-hydroxyimino]-5-nitro-3-hexenamide (NOR3). Nitric oxide generated naturally from NOR3, was measured using the Griess reagent (1% sulfanilamide, 0.1% N-(1-naphthyl) ethylenediamine dihydrochlride in 5% H3PO4). Briefly, 100 μL of the reacted solution was incubated for 5 min with 100 μL Griess reagent. Optical densities at 540 nm were then measured.

[3] = in vivo; set-up: species or system rat; settings: for AUC(0-t) / Cmax / half-life / tmax: oral JHT 2 g/kg, non-compartmental; for concentration at 1 h / concentration at 24 h: rat, po, 2 g/kg; for concentration at 1 h: plasma; for concentration at 24 h: in vivo, 24 h after oral JHT 2 g/kg
Procedure: The higher dose than that in the pharmacological test was used to detect more constituents. […] In some experiments to deconjugate glucuronidated polyphenols, the samples were incubated with 75 mmol/L phosphate buffer containing 200 units/mL β-glucuronidase from Escherichia coli (Sigma-Aldrich) for 2 h at 37 °C.
For quantification of liquiritin, liquiritigenin, isoliquiritin, isoliquiritigeniin, hesperidin, hesperetin, castalagin, and all flavonoid glucuronides, 25–60 µL of standard solution and 25 µL of internal standard solution were added to 200–300 µL of plasma samples, followed by mixing well. Methanol (750–800 µL) was added to the solutions, followed by mixing and centrifugation (7000 g, 5 min). The supernatants were collected and dried at 40 °C under a stream of nitrogen gas. Then, the dried residue was dissolved in 50–100 μL of the HPLC mobile phase of each analytical method, and a 1–20 μL portion was injected into the LC-MS/MS systems. For quantification of genistein, luteolin, quercetin, (+)-catechin, (−)-epicatechin gallate, (±)-gallocatechin, Gallic acid, 4-O-methylgallic acid, hamamelitannin, 1,2,3,6-tetra-O-galloyl glucose, 1,2,3,4,6-penta-O-galloyl glucose, eugeniin, and 1-desgalloyl eugeniin, 200 μL of plasma samples were used. The amounts were measured using the same procedure, as described previously, except ethyl acetate (500 μL) and 2% acetic acid (100 μL), instead of methanol, were used concurrently as an extraction solution.
Plasma pharmacokinetic data were analyzed by non-compartmental modeling using Phoenix WinNonlin (version 6.3, Certara L.P., St. Louis, MO, USA) to determine various pharmacokinetic constants including the maximum concentration (Cmax), time to maximum concentration (tmax), apparent elimination half-life (t1/2), and area under the plasma concentration-time curve from time zero to the last observation (AUC0–last). The t1/2 was […] loge2/ke, where ke is the terminal elimination (at least three data points on the descending linear limb) rate constant.

[4] = rat plasma, 1 h after oral JHT 2 g/kg, read-out: plasma concentration before β-glucuronidase treatment
[5] = rat plasma after oral JHT 2 g/kg
[6] = rat plasma, 6 h after oral JHT 2 g/kg

SMILES	Antioxidant activity, IC50, Hydrogen Peroxide [1]	AUC(0-t) ([3]; rat plasma)	Cmax ([3]; rat plasma)	half-life ([3]; rat plasma)	tmax ([3]; rat plasma)	other results
COc1cc(C(=O)O)cc(O)c1O [3-O-methylgallic acid]	–	–	–	–	–	activity against ROS (in words) [1]: strong activity; activity against nitric oxide (in words) [2]: not nitric oxide
COc1c(O)cc(C(=O)O)cc1O [4-O-Methylgallic acid, 4-O-methylgallic acid]	not detectable even at the highest concentration	32.7 ng·h/mL	6.65 ng/mL	1.62 h	2.00 H	Antioxidant activity, IC50, Nitric Oxide ([2]; tested at 0.1-30 μmol/L, N = 3, n.d. = not detectable at the maximal concentration (30 μmol/L)): 3.59 µg/mL; plasma concentration after β-glucuronidase treatment ([3]; rat plasma, 1 h after oral JHT 2 g/kg): unchanged; concentration at 1 h [3, 4]: 5.57 ng/mL
COc1c2c(cc3oc(CO)cc(=O)c13)O[C@H](C(C)(C)O)C2 [Cimifugin, cimifugin, reference compound]	–	–	–	–	–	activity against ROS (in words) [1]: no activity; activity against nitric oxide (in words) [2]: no activity; appearance / detection in plasma [3, 5]: identified by major peaks
O=C(O)c1cc(O)c(O)c(O)c1 [Gallic acid]	–	–	–	–	–	plasma concentration (not detected) [3, 5]: < 10 ng/mL
CC1(C)[C@@H](O)CC[C@]2(C)[C@H]3C(=O)C=C4[C@@H]5C[C@@](C)(C(=O)O)CC[C@]5(C)CC[C@@]4(C)[C@]3(C)CC[C@@H]12 [Glycyrrhetic acid, glycyrrhetic acid, reference compound]	–	–	–	–	–	activity against ROS (in words) [1]: no activity; activity against nitric oxide (in words) [2]: no activity; appearance / detection in plasma [3, 5]: identified by major peaks
COc1ccc(C2CC(=O)c3c(O)cc(OC4OC(C(=O)O)C(O)C(O)C4O)cc3O2)cc1O (stereo not shown) [Hesperetin 7-O-glucuronide, hesperetin 7-O-glucuronide]	4.27 µg/mL	190 ng·h/mL	34.2 ng/mL	2.99 h	4.00 H	anti-ROS activity of glucuronide compared with its aglycone ([1]; Figure 4): partially decreased
O=C(C=Cc1ccc(O)cc1)c1ccc(O)cc1OC1OC(C(=O)O)C(O)C(O)C1O (stereo not shown) [Isoliquiritigenin 2′-O-glucuronide, isoliquiritigenin 2′-O-glucuronide]	0.704 µg/mL	11.6 ng·h/mL	3.19 ng/mL	–	0.250 H	–
O=C(C=Cc1ccc(OC2OC(C(=O)O)C(O)C(O)C2O)cc1)c1ccc(O)cc1O (stereo not shown) [Isoliquiritigenin 4-O-glucuronide, isoliquiritigenin 4-O-glucuronide]	–	1.84 ng·h/mL	0.388 ng/mL	5.68 h	0.250 H	–
O=C(O)[C@H]1O[C@@H](Oc2cc(O)c3c(=O)cc(-c4ccc(O)c(O)c4)oc3c2)[C@H](O)[C@@H](O)[C@@H]1O [LTN-7G, luteolin 7-O-glucuronide]	–	–	–	–	–	appearance / detection in plasma [3, 5]: did not appear in the plasma
O=C1CC(c2ccc(OC3OC(C(=O)O)C(O)C(O)C3O)cc2)Oc2cc(O)ccc21 (stereo not shown) [Liquiritigenin 4′-O-glucuronide, liquiritigenin 4′-O-glucuronide]	not detectable even at the highest concentration	522 ng·h/mL	84.1 ng/mL	2.27 h	2.00 H	activity against ROS (in words) [1]: no activity; anti-ROS activity of glucuronide compared with its aglycone ([1]; Figure 4): no activity
O=C1C[C@@H](c2ccc(O[C@@H]3O[C@H](CO)[C@@H](O)[C@H](O)[C@H]3O)cc2)Oc2cc(O)ccc21 [Liquiritin]	–	–	–	–	–	concentration at 1 h ([3]; rat plasma, 1 h after oral JHT 2 g/kg, read-out: plasma concentration after β-glucuronidase treatment): 39.1 ng/mL; concentration at 1 h [3, 4]: 2.4 ng/mL
O=C(O)[C@H]1O[C@@H](Oc2c(-c3ccc(O)c(O)c3)oc3cc(O)cc(O)c3c2=O)[C@H](O)[C@@H](O)[C@@H]1O [QCN-3G, quercetin 3-O-glucuronide]	–	–	–	–	–	appearance / detection in plasma [3, 5]: did not appear in the plasma
O=c1c(-c2ccc(O)cc2)coc2cc(O)cc(O)c12 [genistein]	–	–	–	–	–	concentration at 24 h ([3]; rat plasma, read-out: plasma concentration after β-glucuronidase treatment): 78.3 ng/mL; concentration at 24 h ([3]; rat plasma, read-out: plasma concentration before β-glucuronidase treatment): 0.975 ng/mL
O=C1C[C@@H](c2ccc(O)cc2)Oc2cc(O)ccc21 [liquiritigenin]	–	–	–	–	–	activity against ROS (in words) [1]: strong activity; plasma concentration after β-glucuronidase treatment [3, 6]: 200 ng/mL; plasma concentration before β-glucuronidase treatment [3, 6]: 0.873 ng/mL

Now from value to compound, other results behind:

Antioxidant activity, IC50, Hydrogen Peroxide [1]	AUC(0-t) ([3]; rat plasma)	Cmax ([3]; rat plasma)	half-life ([3]; rat plasma)	tmax ([3]; rat plasma)	SMILES	other results
0.638 µg/mL	812 ng·h/mL	53.4 ng/mL	–	24.0 H	O=C(O)C1OC(Oc2cc(O)c3c(=O)c(-c4ccc(O)cc4)coc3c2)C(O)C(O)C1O (stereo not shown) [Genistein 7-O-glucuronide, genistein 7-O-glucuronide]	inhibition (anti-ROS activity) ([1]; at 134 ng/mL, statistically significant, Figure 4): 25%; anti-ROS activity of glucuronide compared with its aglycone ([1]; Figure 4): completely identical to that of their aglycones; plasma concentration ([3]; rat plasma at 10 and 24 h after oral JHT): approximately 50 ng/mL; tmax ([3]; rat plasma, listed as GEN-7G): 24 H
0.691 µg/mL	80.8 ng·h/mL	15.8 ng/mL	2.25 h	0.250 H	O=C(C=Cc1ccc(O)cc1)c1ccc(OC2OC(C(=O)O)C(O)C(O)C2O)cc1O (stereo not shown) [Isoliquiritigenin 4′-O-glucuronide, isoliquiritigenin 4′-O-glucuronide]	anti-ROS activity of glucuronide compared with its aglycone ([1]; Figure 4): completely identical to that of their aglycones
0.765 µg/mL	223 ng·h/mL	35.6 ng/mL	2.72 h	2.00 H	O=C1CC(c2ccc(O)cc2)Oc2cc(OC3OC(C(=O)O)C(O)C(O)C3O)ccc21 (stereo not shown) [Liquiritigenin 7-O-glucuronide, liquiritigenin 7-O-glucuronide]	anti-ROS activity of glucuronide compared with its aglycone ([1]; Figure 4): completely identical to that of their aglycones
